Results from US6943183B2 (Pfizer Inc, priority 2000, dated 2005).
Counter-ions that a name gives are not always drawn.

Biological target: T1, SF9 affinity purified rat FPT (Rattus norvegicus, UniProt Q02293+Q04631)
T1 construct: made in house; host or cells: Sf9 insect cells
Experiment: PFT (FPT) inhibitory activity assay, radiolabeled farnesyl pyrophosphate and biotinyl peptide, streptavidin beads
Type: biochemical
Conditions: HEPES buffer pH 7.4, 30° C., 30 minutes; read-out: FTase IC50
Method: The PFT or FPT inhibitory activity of compounds of the present invention were assayed in HEPES buffer (pH 7.4) containing 5 mM potassium phosphate and 20 μM ZnCl2. The solution also contained 5 mM DTT (dithiothreitol), 5 mM MgCl2, and 0.1% PEG 8000. Assays were performed in 96 well plates (Wallec) and employed solutions composed of varying concentrations of a compound of the present invention in 10% DMSO (dimethylsulfoxide). […] After incubation at 30° C. for 30 minutes, the reaction was terminated by diluting the reaction 2.5-fold with a stop buffer containing 1.5 M magnesium acetate, 0.2 M H3PO4, 0.5% BSA (bovine serum albumin), and strepavidin beads (Amersham) at a concentration of 1.3 mg/mL. […] The assay was also carried out without 5 mM potassium phosphate.

Row | IC50 | Compound
1 | 7 nM | CCOC(=O)CCNC(=O)c1ccccc1S(=O)(=O)Cc1c(O[C@H](Cn2ccnc2)c2ccccc2)ccc2c1CCCC2=O [Compound 183, Ethyl 3-[(2-{[(2-{[(1S)-2-(1H-Imidazol-1-yl)-1-phenylethyl]oxy}-5-oxo-5,6,7,8-tetrahydro-1-naphthalenyl)methyl]sulfonyl}benzoyl)amino]propanoate]
2 | 6 nM | O=C1CCCc2c1ccc(O[C@H](Cn1ccnc1)c1ccccc1)c2COc1ccccc1Cl [Compound 106]
3 | 0.2 nM | O=C(NC1CC1)c1ccc(SCc2c(O[C@H](Cn3ccnc3)c3ccccc3)ccc3c2CCCC3=O)cc1 [Compound 226, N-Cyclopropyl-4-{[(2-{[(1S)-2-(1H-imidazol-1-yl)-1-phenylethyl]oxy}-5-oxo-5,6,7,8-tetrahydro-1-naphthalenyl)methyl]sulfanyl}benzamide]
4 | 7 nM | C=CCc1c(OC(Cn2ccnc2)c2cccs2)ccc2c1CCCC2=O (racemic) [Compound 61, (±)-6-(2-imidazolyl-1-(2-thienyl)ethoxy)-5-prop-2-ethyl-2,3,4-trihydronaphthalen-1-one]
5 | 7 nM | O=C(O)CCNC(=O)c1ccccc1S(=O)(=O)Cc1c(O[C@H](Cn2ccnc2)c2ccccc2)ccc2c1CCCC2=O [Compound 167, N-2-{[(2-{[(1S)-2-(1H-Imidazol-1-yl)-1-phenylethyl]oxy}-5-oxo-5,6,7,8-tetrahydro-1-naphthalenyl)methyl]sulfonyl}benzoyl-β-alanine]
6 | 3.1 nM | O=C1CCCc2c1ccc(O[C@H](Cn1ccnc1)c1ccccc1)c2CCCc1ccccc1 [Compound 44b, 6-((S)-2-Imidazol-1-yl-1-phenyl-ethoxy)-5-(3-phenyl-propyl)-3,4-dihydro-2H-naphthalen-1-one]
7 | 10 nM | CN(C)CCNC(=O)c1cccc(S(=O)(=O)Cc2c(O[C@H](Cn3ccnc3)c3ccccc3)ccc3c2CCCC3=O)c1 [Compound 182, N-[2-(Dimethylamino)ethyl]-3-{[(2-{[(1S)-2-(1H-imidazol-1-yl)-1-phenylethyl]oxy}-5-oxo-5,6,7,8-tetrahydro-1-naphthalenyl)methyl]sulfonyl}benzamide]
8 | 16 nM | O=C1CCCc2c1ccc(O[C@H](Cn1ccnc1)c1ccccc1)c2CNc1ccc(Br)cc1 [Compound 150, 5-[(4-Bromo-phenylamino)-methyl]-6-((S)-2-imidazol-1-yl-1-phenyl-ethoxy)-3,4-dihydro-2H-napthalen-1-one]
9 | 30 nM | O=C1CCCc2c1ccc(O[C@H](Cn1ccnc1)c1ccccc1)c2CSc1ccc(Br)cc1 [Compound 109, 6-((1S)-2-Imidazolyl-1-phenylethoxy)-5-[(4-bromophenylthio)methyl]-2,3,4-trihydronaphthalen-1-one]
10 | 5 nM | O=C(O)c1cccc(SCc2c(O[C@H](Cn3ccnc3)c3ccccc3)ccc3c2CCCC3=O)c1 [Compound 163, 3-{[(2-{[(1S)-2-(1H-Imidazol-1-yl)-1-phenylethyl]oxy}-5-oxo-5,6,7,8-tetrahydro-1-naphthalenyl)methyl]sulfanyl}benzoic Acid]
11 | 9.5 nM | CC(C)[C@@H](Cn1ccnc1)Oc1ccc2c(c1CS(=O)(=O)C(C)C)CCCC2=O [Compound 63g, 6-((S)-1-Imidazol-1-ylmethyl-2-methyl-propoxy)-5-(propane-2-sulfonylmethyl)-3,4-dihydro-2H-napthalen-1-one]
12 | 30.5 nM | O=C1CCCc2c1ccc(O[C@H](Cn1ccnc1)c1ccccc1)c2CSc1cccc2ccccc12 [Compound 10a, 6-((S)-2-Imidazol-1-yl-1-phenyl-ethoxy)-5-(naphthalen-1-ylsulfanylmethyl)-3,4-dihydro-2H-naphthalen-1-one]
13 | 0.7 nM | O=C1CCCc2c1ccc(O[C@H](Cn1ccnc1)c1ccccc1)c2COc1cccc(Cl)c1 [Compound 69]
14 | 7 nM | Cc1ccc(C(C)C)cc1OCc1c(O[C@H](Cn2ccnc2)c2ccccc2)ccc2c1CCCC2=O [Compound 70]
15 | 0.4 nM | O=C1CCCc2c1ccc(O[C@H](Cn1ccnc1)c1ccccc1)c2CCc1ccccn1 [Compound 24, 6-((1S)-2-Imidazolyl-1-phenylethoxy)-5-(2-(2-pyridyl)ethyl)-2,3,4-trihydronaphthalen-1-one]
16 | 0.2 nM | C[C@H](O)CNC(=O)c1ccccc1S(=O)(=O)Cc1c(O[C@H](Cn2ccnc2)c2ccccc2)ccc2c1CCCC2=O [Compound 201, N-[(2S)-2-Hydroxypropyl]-2-{[(2-{[(1S)-2-(1H-imidazol-1-yl)-1-phenylethyl]oxy}-5-oxo-5,6,7,8-tetrahydro-1-naphthalenyl)methyl]sulfonyl}benzamide]

Row | IC50 | Compound
17 | 0.2 nM | CC[C@H](C)CNC(=O)c1ccccc1SCc1c(O[C@H](Cn2ccnc2)c2ccccc2)ccc2c1CCCC2=O [Compound 250, 2-{[(2-{[(1S)-2-(1H-Imidazol-1-yl)-1-phenylethyl]oxy}-5-oxo-5,6,7,8-tetrahydro-1-naphthalenyl)methyl]sulfanyl}-N-[(2S)-2-1-methylbutyl]benzamide]
18 | 0.2 nM | O=C1CCCc2c1ccc(S[C@H](Cn1ccnc1)c1ccccc1)c2CCc1ccccc1 [Compound 63]
19 | 5 nM | Cc1cccc(OCc2c(O[C@H](Cn3ccnc3)c3ccccc3)ccc3c2CCCC3=O)c1 [Compound 99]
20 | 1 nM | CC(C)(C)c1cccc(OCc2c(O[C@H](Cn3ccnc3)c3ccccc3)ccc3c2CCCC3=O)c1 [Compound 67]
21 | 6 nM | O=C(Nc1c(O[C@H](Cn2ccnc2)c2ccccc2)ccc2c1CCCC2=O)c1cc2ccccc2cn1 [Compound 40b, Isoquinioline-3-carboxylic acid [2-((S)-2-imidazol-1-yl-1-phenyl-ethoxy)-5-oxo-5,6,7,8-tetrahydro-naphthalen-1-yl]-amide]
22 | 5 nM | O=C1CCCc2c1ccc(O[C@H](Cn1ccnc1)c1ccccc1)c2COc1ccc(OC(F)(F)F)cc1 [Compound 96, 6-((1S)-2-Imidazolyl-1-phenylethoxy)-5-{[4-(trifluoromethoxy)phenoxy]methyl}-2,3,4-trihydronaphthalen-1-one]
23 | 7 nM | CNC(=O)c1cccc(SCc2c(O[C@H](Cn3ccnc3)c3ccccc3)ccc3c2CCCC3=O)c1 [Compound 192, 3-{[(2-{[(1S)-2-(1H-Imidazol-1-yl)-1-phenylethyl]oxy}-5-oxo-5,6,7,8-tetrahydro-1-naphthalenyl)methyl]sulfanyl}-N-methylbenzamide]
24 | 10 nM | O=C(O)CCNC(=O)c1cccc(S(=O)(=O)Cc2c(O[C@H](Cn3ccnc3)c3ccccc3)ccc3c2CCCC3=O)c1 [Compound 168, N-3-{[(2-{[(1S)-2-(1H-Imidazol-1-yl)-1-phenylethyl]oxy}-5-oxo-5,6,7,8-tetrahydro-1-naphthalenyl)methyl]sulfonyl}benzoyl-β-alanine]
25 | 3 nM | O=C1CCCc2c1ccc(O[C@H](Cn1ccnc1)c1ccccc1)c2COc1ccc2c(c1)OCO2 [Compound 93, 6-((1S)-2-Imidazolyl-1-phenylethoxy)-5-(2H-benzo[d]1,3-dioxolan-5-yloxymethyl)-2,3,4-trihydronaphthalen-1-one]
26 | 0.2 nM | CC[C@H](C)CNC(=O)c1ccc(S(=O)(=O)Cc2c(O[C@H](Cn3ccnc3)c3ccccc3)ccc3c2CCCC3=O)cc1 [Compound 247, 4-{[(2-{[(1S)-2-(1H-Imidazol-1-yl)-1-phenylethyl]oxy}-5-oxo-5,6,7,8-tetrahydro-1-naphthalenyl)methyl]sulfonyl}-N-[(2S)-2-methylbutyl]benzamide]
27 | 0.2 nM | C=CCNC(=O)c1cccc(S(=O)(=O)Cc2c(O[C@H](Cn3ccnc3)c3ccccc3)ccc3c2CCCC3=O)c1 [Compound 205, N-Allyl-3-{[(2-{[(1S)-2-(1H-imidazol-1-yl)-1-phenylethyl]oxy}-5-oxo-5,6,7,8-tetrahydro-1-naphthalenyl)methyl]sulfonyl}benzamide]
28 | 0.2 nM | O=C(NCc1ccco1)c1ccc(SCc2c(O[C@H](Cn3ccnc3)c3ccccc3)ccc3c2CCCC3=O)cc1 [Compound 238, N-(2-Furylmethyl)-4-{[(2-{[(1S)-2-(1H-imidazol-1-yl)-1-phenylethyl]oxy}-5-oxo-5,6,7,8-tetrahydro-1-naphthalenyl)methyl]sulfanyl}benzamide]
29 | 4 nM | O=C1CCCc2c1ccc(O[C@H](Cn1ccnc1)c1ccccc1)c2CNS(=O)(=O)c1ccc2ccccc2c1 [Compound 42f, Naphthalene-2-sulfonic acid [2-((S)-2-imidazol-1-yl-1-phenyl-ethoxy)-5-oxo-5,6,7,8-tetrahydro-naphthalen-1-ylmethyl]-amide; compound with trifluoro-acetic acid]
30 | 1 nM | O=C1CCCc2c1ccc(O[C@H](Cn1ccnc1)c1ccccc1)c2CSC1CCCCC1 [Compound 117]
31 | 0.87 nM | O=C1CCCc2c1ccc(O[C@H](Cn1ccnc1)c1ccccc1)c2CCc1ccsc1 [Compound 44a, 6-((S)-2-Imidazol-1-yl-1-phenyl-ethoxy)-5-(2-thiophen-3-yl-ethyl)-3,4-dihydro-2H-naphthalen-1-one]

Row | Compound | IC50
32 | O=C1CCCc2c1ccc(O[C@H](Cn1ccnc1)c1ccccc1)c2CS(=O)(=O)c1ccccn1 [Compound 10, 6-(1S)-2-Imidazolyl-1-phenylethoxy)-5-[(2-pyridylsulfonyl)methyl]-2,3,4-trihydronaphthalen-1-one hydrochloride] | 0.3 nM
33 | CCC(C)OCc1c(O[C@H](Cn2ccnc2)c2ccccc2)ccc2c1CCCC2=O (mixture of isomers) [Compound 19d, (±)5-sec-Butoxymethyl-6-((S)-2-imidazol-1-yl-1-phenyl-ethoxy)-3,4-dihydro-2H-naphthalen-1-one] | 1.9 nM
34 | O=C(O)c1cccnc1SCc1c(O[C@H](Cn2ccnc2)c2ccccc2)ccc2c1CCCC2=O [Compound 126, 2-{[2-((1S)-2-Imidazolyl-1-phenylethoxy)-5-oxo-6,7,8-trihydronaphenyl]methylthio}pyridine-3-carboxylic acid] | 19 nM
